The source made the active and inactive calls. No cut-off for these calls is given here.
Columns and labels:
[1] = biological target: T1, DNA polymerase kappa (Homo sapiens) (UniProt Q9UBT6); assay: Inhibition of human DNA polymerase kappa
T1 sequence (whole entry): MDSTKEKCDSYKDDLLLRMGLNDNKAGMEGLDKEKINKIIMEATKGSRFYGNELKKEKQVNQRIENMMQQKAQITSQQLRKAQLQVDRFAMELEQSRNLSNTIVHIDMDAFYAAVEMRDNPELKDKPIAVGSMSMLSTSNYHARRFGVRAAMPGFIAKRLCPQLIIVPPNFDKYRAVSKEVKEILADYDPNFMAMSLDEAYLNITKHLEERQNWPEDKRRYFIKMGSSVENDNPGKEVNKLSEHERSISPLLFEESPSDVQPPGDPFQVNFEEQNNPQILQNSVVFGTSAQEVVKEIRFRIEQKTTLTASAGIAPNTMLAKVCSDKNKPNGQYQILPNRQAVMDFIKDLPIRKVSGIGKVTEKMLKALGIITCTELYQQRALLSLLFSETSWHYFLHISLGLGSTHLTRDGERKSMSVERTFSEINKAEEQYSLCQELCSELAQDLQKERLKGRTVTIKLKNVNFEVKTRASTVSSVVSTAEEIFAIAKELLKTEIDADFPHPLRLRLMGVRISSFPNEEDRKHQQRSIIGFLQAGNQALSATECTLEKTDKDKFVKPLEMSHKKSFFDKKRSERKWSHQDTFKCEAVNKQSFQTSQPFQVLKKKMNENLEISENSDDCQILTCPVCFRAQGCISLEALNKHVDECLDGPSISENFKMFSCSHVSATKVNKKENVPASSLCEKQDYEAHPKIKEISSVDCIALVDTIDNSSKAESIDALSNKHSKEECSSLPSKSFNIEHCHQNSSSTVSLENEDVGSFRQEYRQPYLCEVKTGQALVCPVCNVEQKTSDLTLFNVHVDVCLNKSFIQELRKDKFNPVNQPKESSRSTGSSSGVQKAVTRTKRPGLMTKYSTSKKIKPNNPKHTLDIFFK

[2] = biological target: T2, DNA polymerase iota (Mus musculus) (UniProt Q6R3M4); assay: Inhibition of mouse DNA polymerase iota
T2 sequence (whole entry): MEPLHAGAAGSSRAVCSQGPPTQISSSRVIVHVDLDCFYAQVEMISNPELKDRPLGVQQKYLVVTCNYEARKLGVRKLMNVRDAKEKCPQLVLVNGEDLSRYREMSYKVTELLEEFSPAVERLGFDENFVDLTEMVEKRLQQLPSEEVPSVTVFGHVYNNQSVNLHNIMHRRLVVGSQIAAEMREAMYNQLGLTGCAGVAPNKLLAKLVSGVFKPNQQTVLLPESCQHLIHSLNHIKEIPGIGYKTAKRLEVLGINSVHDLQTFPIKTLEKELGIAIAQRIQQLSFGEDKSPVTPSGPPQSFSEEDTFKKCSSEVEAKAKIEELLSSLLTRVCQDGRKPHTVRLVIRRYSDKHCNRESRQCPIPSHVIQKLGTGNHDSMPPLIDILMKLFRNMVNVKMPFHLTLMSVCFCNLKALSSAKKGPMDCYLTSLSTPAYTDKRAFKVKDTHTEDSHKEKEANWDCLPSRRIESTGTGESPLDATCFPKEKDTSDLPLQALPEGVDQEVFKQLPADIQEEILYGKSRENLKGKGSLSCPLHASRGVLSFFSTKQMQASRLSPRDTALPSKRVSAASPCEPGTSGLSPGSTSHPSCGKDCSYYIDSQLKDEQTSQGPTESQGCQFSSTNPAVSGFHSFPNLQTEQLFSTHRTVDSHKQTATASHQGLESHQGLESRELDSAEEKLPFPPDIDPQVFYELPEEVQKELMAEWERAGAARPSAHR

[3] = biological target: T3, DNA polymerase eta (Homo sapiens) (UniProt Q9Y253); assay: Inhibition of human DNA polymerase eta
T3 sequence (whole entry): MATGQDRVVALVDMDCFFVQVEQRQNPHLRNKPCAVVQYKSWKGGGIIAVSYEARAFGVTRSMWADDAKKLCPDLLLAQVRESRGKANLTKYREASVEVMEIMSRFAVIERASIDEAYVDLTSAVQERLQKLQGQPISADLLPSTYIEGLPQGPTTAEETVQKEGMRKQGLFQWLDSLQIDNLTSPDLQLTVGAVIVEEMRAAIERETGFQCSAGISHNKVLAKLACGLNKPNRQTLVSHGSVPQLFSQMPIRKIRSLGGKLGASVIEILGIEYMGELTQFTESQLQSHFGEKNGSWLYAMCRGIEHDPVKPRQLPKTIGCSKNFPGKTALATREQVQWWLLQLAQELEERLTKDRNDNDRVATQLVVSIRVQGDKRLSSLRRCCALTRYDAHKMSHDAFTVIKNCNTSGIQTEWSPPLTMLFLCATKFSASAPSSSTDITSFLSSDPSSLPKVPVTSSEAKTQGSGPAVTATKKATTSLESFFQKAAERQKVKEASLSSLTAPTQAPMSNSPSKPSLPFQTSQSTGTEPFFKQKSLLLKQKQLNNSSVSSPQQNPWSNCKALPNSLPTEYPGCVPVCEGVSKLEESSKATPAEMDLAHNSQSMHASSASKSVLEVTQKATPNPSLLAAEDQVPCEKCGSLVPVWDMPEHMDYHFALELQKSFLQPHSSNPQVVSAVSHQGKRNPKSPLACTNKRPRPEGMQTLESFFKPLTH

[4] = biological target: T1, DNA polymerase kappa (Homo sapiens); assay: Inhibition of human DNA polymerase kappa at 100 uM
[5] = biological target: T2, DNA polymerase iota (Mus musculus); assay: Inhibition of mouse DNA polymerase iota at 100 uM
[6] = biological target: T3, DNA polymerase eta (Homo sapiens); assay: Inhibition of human DNA polymerase eta at 100 uM
[7] = organism: Homo sapiens; assay: Inhibition of human DNA polymerase gamma at 100 uM
[8] = organism: Bos taurus; assay: Inhibition of calf DNA polymerase alpha at 100 uM
[9] = organism: Homo sapiens; assay: Inhibition of human DNA polymerase delta at 100 uM
[10] = organism: Homo sapiens; assay: Inhibition of human DNA polymerase epsilon at 100 uM
[11] = biological target: DNA polymerase beta (Rattus norvegicus) (UniProt P06766); assay: Inhibition of rat DNA polymerase beta at 100 uM
[12] = biological target: DNA polymerase lambda (Homo sapiens) (UniProt Q9UGP5); assay: Inhibition of human DNA polymerase lambda at 100 uM
Chain of DNA polymerase lambda (Homo sapiens) (Q9UGP5 whole entry): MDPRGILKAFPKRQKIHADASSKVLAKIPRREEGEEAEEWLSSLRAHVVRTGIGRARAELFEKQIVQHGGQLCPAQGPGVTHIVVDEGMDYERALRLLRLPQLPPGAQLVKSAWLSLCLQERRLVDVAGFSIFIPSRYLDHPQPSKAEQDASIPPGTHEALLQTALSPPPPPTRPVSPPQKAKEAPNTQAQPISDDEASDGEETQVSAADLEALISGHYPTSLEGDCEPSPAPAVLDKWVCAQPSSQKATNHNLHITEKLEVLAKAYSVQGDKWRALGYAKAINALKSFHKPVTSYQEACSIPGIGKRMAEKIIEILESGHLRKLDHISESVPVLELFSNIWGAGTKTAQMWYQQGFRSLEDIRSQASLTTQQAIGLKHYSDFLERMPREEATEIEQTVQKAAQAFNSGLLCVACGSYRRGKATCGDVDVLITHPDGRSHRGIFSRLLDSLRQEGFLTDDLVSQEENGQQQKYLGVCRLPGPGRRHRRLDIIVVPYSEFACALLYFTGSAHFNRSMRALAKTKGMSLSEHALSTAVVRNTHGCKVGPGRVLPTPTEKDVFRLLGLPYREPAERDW

[13] = biological target: DNA nucleotidylexotransferase (Bos taurus) (UniProt P06526); assay: Inhibition of calf terminal deoxynucleotidyltransferase at 100 uM
Chain of DNA nucleotidylexotransferase (Bos taurus) (P06526 whole entry): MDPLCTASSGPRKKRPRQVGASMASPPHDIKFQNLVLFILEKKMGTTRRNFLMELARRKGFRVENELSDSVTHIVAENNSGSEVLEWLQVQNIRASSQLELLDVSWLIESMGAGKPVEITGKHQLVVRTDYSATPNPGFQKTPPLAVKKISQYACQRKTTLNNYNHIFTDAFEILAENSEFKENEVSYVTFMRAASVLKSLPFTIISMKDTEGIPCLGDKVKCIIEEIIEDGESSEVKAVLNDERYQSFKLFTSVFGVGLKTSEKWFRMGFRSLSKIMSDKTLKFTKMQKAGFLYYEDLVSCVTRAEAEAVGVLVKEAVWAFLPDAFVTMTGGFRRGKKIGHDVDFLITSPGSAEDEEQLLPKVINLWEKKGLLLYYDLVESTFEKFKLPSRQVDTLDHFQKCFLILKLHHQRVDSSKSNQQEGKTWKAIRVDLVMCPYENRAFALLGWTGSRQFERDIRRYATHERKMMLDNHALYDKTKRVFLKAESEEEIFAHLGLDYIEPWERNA

[14] = tested on: Oncorhynchus masou; assay: Inhibition of cherry salmon DNA polymerase delta at 100 uM
[15] = tested on: Drosophila melanogaster; assay: Inhibition of fruit fly DNA polymerase alpha at 100 uM
[16] = tested on: Drosophila melanogaster; assay: Inhibition of fruit fly DNA polymerase delta at 100 uM
[17] = tested on: Drosophila melanogaster; assay: Inhibition of fruit fly DNA polymerase epsilon at 100 uM
[18] = tested on: Brassica oleracea var. botrytis; assay: Inhibition of cauliflower DNA polymerase alpha at 100 uM
[19] = tested on: Escherichia coli; assay: Inhibition of Escherichia coli DNA polymerase 1 Klenow fragment at 100 uM
[20] = biological target: DNA-directed DNA polymerase (Enterobacteria phage T4) (UniProt P04415); assay: Inhibition of Enterobacteria phage T4 DNA polymerase at 100 uM; settings: Tequatrovirus T4
Chain of DNA-directed DNA polymerase (Enterobacteria phage T4) (P04415 whole entry): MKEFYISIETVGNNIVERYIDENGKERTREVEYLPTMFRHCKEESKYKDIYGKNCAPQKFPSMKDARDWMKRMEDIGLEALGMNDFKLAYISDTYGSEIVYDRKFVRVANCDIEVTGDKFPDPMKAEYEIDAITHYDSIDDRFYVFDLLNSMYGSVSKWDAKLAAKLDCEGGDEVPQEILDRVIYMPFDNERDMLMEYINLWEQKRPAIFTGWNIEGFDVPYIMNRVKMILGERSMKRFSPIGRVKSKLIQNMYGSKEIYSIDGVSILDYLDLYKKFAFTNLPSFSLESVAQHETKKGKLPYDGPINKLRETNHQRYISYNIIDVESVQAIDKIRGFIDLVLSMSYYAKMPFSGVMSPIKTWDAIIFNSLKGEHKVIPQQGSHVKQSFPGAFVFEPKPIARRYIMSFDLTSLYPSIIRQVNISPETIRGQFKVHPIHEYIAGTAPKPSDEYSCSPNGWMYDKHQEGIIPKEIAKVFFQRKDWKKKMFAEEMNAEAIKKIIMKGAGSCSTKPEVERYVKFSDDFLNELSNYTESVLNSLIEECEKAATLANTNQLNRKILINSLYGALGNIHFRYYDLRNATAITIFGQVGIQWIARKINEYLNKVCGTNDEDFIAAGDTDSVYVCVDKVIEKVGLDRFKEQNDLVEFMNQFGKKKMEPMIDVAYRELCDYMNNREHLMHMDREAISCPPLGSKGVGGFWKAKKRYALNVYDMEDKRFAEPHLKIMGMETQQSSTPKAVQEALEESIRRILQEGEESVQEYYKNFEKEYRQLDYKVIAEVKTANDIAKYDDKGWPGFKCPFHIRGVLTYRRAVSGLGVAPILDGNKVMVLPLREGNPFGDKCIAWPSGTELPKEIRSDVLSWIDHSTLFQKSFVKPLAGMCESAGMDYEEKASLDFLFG

[21] = tested on: Thermus aquaticus; assay: Inhibition of Taq DNA polymerase at 100 uM
[22] = organism: Bos taurus; assay: Inhibition of calf primase of DNA polymerase alpha at 100 uM
[23] = biological target: Human immunodeficiency virus type 1 reverse transcriptase (Human immunodeficiency virus 1) (UniProt Q72547); assay: Inhibition of HIV-1 reverse transcriptase at 100 uM
[24] = biological target: Telomerase reverse transcriptase (Homo sapiens) (UniProt O14746); assay: Inhibition of human telomerase at 100 uM
Chain of Telomerase reverse transcriptase (Homo sapiens) (O14746 whole entry): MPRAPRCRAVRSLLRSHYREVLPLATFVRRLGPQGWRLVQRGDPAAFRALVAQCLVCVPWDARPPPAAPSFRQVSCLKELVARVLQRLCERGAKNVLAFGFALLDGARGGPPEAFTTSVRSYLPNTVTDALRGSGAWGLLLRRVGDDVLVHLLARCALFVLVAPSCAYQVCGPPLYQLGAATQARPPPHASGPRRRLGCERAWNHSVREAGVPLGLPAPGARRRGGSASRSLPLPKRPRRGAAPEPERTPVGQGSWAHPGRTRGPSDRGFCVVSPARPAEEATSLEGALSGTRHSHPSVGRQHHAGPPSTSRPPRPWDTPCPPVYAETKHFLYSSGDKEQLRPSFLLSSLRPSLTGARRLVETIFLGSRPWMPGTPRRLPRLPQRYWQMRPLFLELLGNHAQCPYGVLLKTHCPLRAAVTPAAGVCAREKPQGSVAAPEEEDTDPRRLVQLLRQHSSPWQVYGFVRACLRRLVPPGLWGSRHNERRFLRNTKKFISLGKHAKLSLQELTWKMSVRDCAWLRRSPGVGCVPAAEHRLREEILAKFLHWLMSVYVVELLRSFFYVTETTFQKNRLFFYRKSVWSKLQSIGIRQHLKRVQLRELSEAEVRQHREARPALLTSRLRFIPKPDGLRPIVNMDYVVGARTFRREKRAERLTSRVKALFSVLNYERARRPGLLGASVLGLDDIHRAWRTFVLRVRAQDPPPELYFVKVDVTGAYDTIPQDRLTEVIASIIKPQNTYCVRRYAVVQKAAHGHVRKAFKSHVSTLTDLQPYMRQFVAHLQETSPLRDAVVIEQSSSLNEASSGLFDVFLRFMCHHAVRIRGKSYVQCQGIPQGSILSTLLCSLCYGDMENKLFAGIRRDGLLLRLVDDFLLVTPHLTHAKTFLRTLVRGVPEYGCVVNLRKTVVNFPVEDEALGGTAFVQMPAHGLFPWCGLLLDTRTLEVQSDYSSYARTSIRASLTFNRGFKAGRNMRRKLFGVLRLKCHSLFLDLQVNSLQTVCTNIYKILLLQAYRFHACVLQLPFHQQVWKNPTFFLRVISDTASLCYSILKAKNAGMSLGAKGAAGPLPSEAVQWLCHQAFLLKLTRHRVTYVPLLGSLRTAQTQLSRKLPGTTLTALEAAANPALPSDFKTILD

[25] = tested on: Escherichia phage T7; assay: Inhibition of Enterobacteria phage T7 RNA polymerase at 100 uM
[26] = biological target: Inosine-5'-monophosphate dehydrogenase 2 (Mus musculus) (UniProt P24547); assay: Inhibition of mouse IMP dehydrogenase 2 at 100 uM
Chain of Inosine-5'-monophosphate dehydrogenase 2 (Mus musculus) (P24547 whole entry, looked up): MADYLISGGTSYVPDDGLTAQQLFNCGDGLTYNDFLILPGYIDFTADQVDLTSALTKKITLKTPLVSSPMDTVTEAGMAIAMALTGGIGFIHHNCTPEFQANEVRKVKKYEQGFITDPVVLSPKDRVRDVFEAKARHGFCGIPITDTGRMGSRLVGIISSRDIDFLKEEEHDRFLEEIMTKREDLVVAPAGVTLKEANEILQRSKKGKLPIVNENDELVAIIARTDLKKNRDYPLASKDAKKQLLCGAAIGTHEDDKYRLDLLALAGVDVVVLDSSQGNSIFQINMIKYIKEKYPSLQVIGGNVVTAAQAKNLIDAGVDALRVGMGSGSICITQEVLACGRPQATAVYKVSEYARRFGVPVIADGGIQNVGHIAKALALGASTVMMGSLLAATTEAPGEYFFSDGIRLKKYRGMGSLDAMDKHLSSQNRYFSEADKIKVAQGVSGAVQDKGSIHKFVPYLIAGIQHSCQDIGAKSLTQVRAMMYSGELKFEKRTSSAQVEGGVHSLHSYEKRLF

[27] = biological target: DNA topoisomerase 1 (Homo sapiens) (UniProt P11387); assay: Inhibition of human DNA topoisomerase 1 at 100 uM
Chain of DNA topoisomerase 1 (Homo sapiens) (P11387 whole entry): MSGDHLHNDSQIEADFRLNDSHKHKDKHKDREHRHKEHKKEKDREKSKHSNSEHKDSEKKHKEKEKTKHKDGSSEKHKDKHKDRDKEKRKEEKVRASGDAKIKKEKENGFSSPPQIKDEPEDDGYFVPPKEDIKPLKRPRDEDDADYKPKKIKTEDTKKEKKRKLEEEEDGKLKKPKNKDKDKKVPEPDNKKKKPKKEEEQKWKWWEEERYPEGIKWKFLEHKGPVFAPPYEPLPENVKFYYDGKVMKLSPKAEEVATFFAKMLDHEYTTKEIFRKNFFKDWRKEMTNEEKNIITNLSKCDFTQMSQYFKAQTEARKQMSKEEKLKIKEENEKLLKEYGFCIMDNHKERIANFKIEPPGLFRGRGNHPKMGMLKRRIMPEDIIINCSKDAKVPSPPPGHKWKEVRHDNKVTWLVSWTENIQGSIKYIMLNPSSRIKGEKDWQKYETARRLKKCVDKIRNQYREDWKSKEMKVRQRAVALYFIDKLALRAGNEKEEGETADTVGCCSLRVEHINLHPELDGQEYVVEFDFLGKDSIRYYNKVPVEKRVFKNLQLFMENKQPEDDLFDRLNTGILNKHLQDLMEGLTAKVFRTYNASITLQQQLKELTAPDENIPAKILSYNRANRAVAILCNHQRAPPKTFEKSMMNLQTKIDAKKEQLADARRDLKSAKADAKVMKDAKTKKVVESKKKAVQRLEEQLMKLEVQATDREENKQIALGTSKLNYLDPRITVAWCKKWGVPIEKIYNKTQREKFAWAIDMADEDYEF

[28] = organism: Homo sapiens; assay: Inhibition of human DNA topoisomerase 2 at 100 uM
[29] = biological target: Polynucleotide kinase (Enterobacteria phage T4) (UniProt P06855); assay: Inhibition of Enterobacteria phage T4 Polynucleotide kinase at 100 uM; settings: Tequatrovirus T4
Chain of Polynucleotide kinase (Enterobacteria phage T4) (P06855 whole entry): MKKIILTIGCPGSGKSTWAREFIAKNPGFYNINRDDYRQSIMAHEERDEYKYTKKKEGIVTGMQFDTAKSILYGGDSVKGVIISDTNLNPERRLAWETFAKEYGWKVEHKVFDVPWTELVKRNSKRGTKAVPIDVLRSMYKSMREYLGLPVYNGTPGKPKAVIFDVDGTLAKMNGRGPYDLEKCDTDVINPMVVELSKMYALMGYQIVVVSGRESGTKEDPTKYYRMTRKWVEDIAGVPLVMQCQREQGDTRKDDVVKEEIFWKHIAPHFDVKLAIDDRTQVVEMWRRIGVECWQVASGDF

[30] = biological target: Deoxyribonuclease-1 (Bos taurus) (UniProt P00639); assay: Inhibition of bovine deoxyribonuclease 1 at 100 uM
Chain of Deoxyribonuclease-1 (Bos taurus) (P00639 whole entry): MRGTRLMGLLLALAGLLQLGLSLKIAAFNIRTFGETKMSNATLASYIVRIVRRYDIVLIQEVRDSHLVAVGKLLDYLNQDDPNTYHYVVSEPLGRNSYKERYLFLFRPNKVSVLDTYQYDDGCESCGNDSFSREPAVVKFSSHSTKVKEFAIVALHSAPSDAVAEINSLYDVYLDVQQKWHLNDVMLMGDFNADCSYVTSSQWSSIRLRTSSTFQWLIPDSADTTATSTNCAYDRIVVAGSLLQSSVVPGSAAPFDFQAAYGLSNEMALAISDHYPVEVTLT

[31] = tested on: Oryza sativa; assay: Inhibition of rice DNA polymerase lambda at 100 uM

Activity [1]	Activity [2]	Activity [3]	Activity [4]	Activity [5]	Activity [6]	Activity [7]	Activity [8]	Activity [9]	Activity [10]	Activity [11]	Activity [12]	Activity [13]	Activity [14]	Activity [15]	Activity [16]	Activity [17]	Activity [18]	Activity [19]	Activity [20]	Compound	further results
Dose-dependent effect	Dose-dependent effect	Dose-dependent effect	Active	Active	Active	inactive	inactive	inactive	inactive	inactive	inactive	inactive	inactive	inactive	inactive	inactive	inactive	inactive	inactive	COC1=C(C(=O)CC(C)O)C(=O)C(C)(/C=C/C=C/C(C)O)O1 (stereo unspecified)	Activity [21]: inactive; Activity [22]: inactive; Activity [23]: inactive; Activity [24]: inactive; Activity [25]: inactive; Activity [26]: inactive; Activity [27]: inactive; Activity [28]: inactive; Activity [29]: inactive; Activity [30]: inactive
Dose-dependent effect	Dose-dependent effect	Dose-dependent effect	Active	Active	Active	inactive	inactive	inactive	inactive	inactive	inactive	inactive	inactive	inactive	inactive	inactive	inactive	inactive	inactive	C/C=C/C(=O)C1=C(OC)OC(C)(/C=C/C=C/C(C)O)C1=O (stereo unspecified)	Activity [21]: inactive; Activity [22]: inactive; Activity [23]: inactive; Activity [24]: inactive; Activity [25]: inactive; Activity [26]: inactive; Activity [27]: inactive; Activity [28]: inactive; Activity [29]: inactive; Activity [30]: inactive; Activity [31]: inactive
